Residues, ends and D or L forms follow the SMILES beside them.
Assays:
[1] = tested on: Nav1.8; experiment: Whole-cell patch clamp, Nav1.8 in ND cells; format: cell-based, human; settings: 1 µM, −10 mV from −80 mV
From the text: (§1) Nine sodium channel subtypes have been identified and classified as TTX-S (Nav1.1–Nav1.4, Nav1.6, and Nav1.7) or TTX-R types (Nav1.5, Nav1.8, and Nav1.9). […] However, the subtype selectivity of JZTX-34 on the subtype of sodium channel is still unknown. In this work, effects of JZTX-34 on VGSC subtypes (Nav1.1–Nav1.8) were examined. Nav1.1–Nav1.7 were transfected into HEK293 cells and Nav1.8 currents were expressed in ND cells. Inward sodium currents were elicited by a 50 ms depolarizing potential to −10 mV from a holding potential of −80 mV every 5 s. […] No effects on other sodium channel subtypes were found (Nav1.1, Nav1.2, Nav1.4–Nav1.6, and Nav1.8) (Figure S2). […]
(§2) The HEK293T cells were maintained in standard culture conditions (5% CO2 and 37 °C). […] After culturing for 36–72 h, cells with obvious green fluorescence were selected for sodium currents recordings the internal solution for sodium currents recording that contained (in mM) 140 CsF, 5 NaCl, 10 HEPES, 3 Na2-ATP, and 10 EGTA. […]
(§3) Sodium currents were recorded from DRG, HEK293, and ND cells by the whole-cell patch-clamp technique at 25 °C. […] Experiments date were acquired from whole-cell Axon 700B patch clamp amplifier (Molecular Devices, Sunnyvale, CA, USA) and analyzed by the program Clampfit10.0 (Molecular Devices, Sunnyvale, CA, USA) and Sigmaplot. […]

[2] = tested on: Nav1.1; experiment: Whole-cell patch clamp, Nav1.1 in HEK293 cells; format: cell-based, rat; settings: 1 µM, −10 mV from −80 mV
From the text: as §1, §2, §3

[3] = tested on: Nav1.4; experiment: Whole-cell patch clamp, Nav1.4 in HEK293 cells; format: cell-based, rat; settings: 1 µM, −10 mV from −80 mV
From the text: as §1, §2, §3

[4] = tested on: chimera #2, Nav1.7 (Nav1.5-DIV-S3-S4); experiment: Whole-cell patch clamp, chimera #2 in HEK293 cells; format: cell-based, human Nav1.7 / rat Nav1.5; settings: n = 5, −10 mV from −80 mV
From the text: Many animal toxins alter activation or inactivation of sodium channels by binding to the S3–S4 regions of channels, which are probably the external linkers or voltage sensors of sodium channels. α-Scorpion toxins slow down fast-inactivation of sodium channels by binding to the extracellular linker loop of DIVS3-S4 (neurotoxin site 3). Meanwhile, β-scorpion toxins that interact with DIIS3-S4 linker enhance the activation of sodium channels by trapping DII voltage sensor in an activated state. As Nav1.5 channel is resistant to the inhibition of JZTX-34, we investigated the binding site of JZTX-34 to Nav1.7 by constructing chimeric channels between Nav1.5 and Nav1.7. […]
as §2, §3

CC(C)C[C@@H]1NC(=O)[C@H](Cc2c[nH]c3ccccc23)NC(=O)[C@H](CCC(=O)O)NC(=O)[C@H](CCCNC(=N)N)NC(=O)[C@@H](NC(=O)[C@H](C)N)CSSC[C@@H]2NC(=O)[C@@H]3CSSC[C@@H](C(=O)N[C@H](C(=O)N[C@@H](Cc4c[nH]c5ccccc45)C(=O)N[C@@H](CC(=O)O)C(=O)N[C@@H](Cc4c[nH]c5ccccc45)C(=O)N[C@H](C(=O)N[C@H](C(=O)O)C(C)C)[C@@H](C)O)C(C)C)NC(=O)[C@H](Cc4c[nH]cn4)NC(=O)[C@H](Cc4ccc(O)cc4)NC(=O)[C@@H]4CCCN4C(=O)[C@H](Cc4c[nH]c5ccccc45)NC(=O)[C@H](CCCCN)NC(=O)[C@H](CCCCN)NC(=O)[C@H](CCCNC(=N)N)NC(=O)[C@H](CSSC[C@H](NC(=O)CNC(=O)CNC1=O)C(=O)N[C@@H](CO)C(=O)N[C@@H](CCCCN)C(=O)N[C@@H](CC(=O)O)C(=O)N[C@@H](C)C(=O)N[C@@H](CC(=O)O)C(=O)N3)NC(=O)[C@H](CCC(=O)O)NC(=O)[C@H](CC(C)C)NC(=O)[C@H](Cc1c[nH]cn1)NC(=O)[C@H](C)NC2=O [JZTX-34, Jingzhaotoxin-34] (HELM PEPTIDE1{A.C.R.E.W.L.G.G.C.S.K.D.A.D.C.C.A.H.L.E.C.R.K.K.W.P.Y.H.C.V.W.D.W.T.V}$PEPTIDE1,PEPTIDE1,2:R3-16:R3|PEPTIDE1,PEPTIDE1,9:R3-21:R3|PEPTIDE1,PEPTIDE1,15:R3-29:R3$$$V2.0; N-terminus and C-terminus assumed)
effect on Nav1.8 currents [1]: No effects
effect on Nav1.1 currents [2]: No effects
effect on Nav1.4 currents [3]: No effects
inhibition of chimera #2 currents ([4]; 1 µM): 43.6 ± 4.5%
inhibition of chimera #2 currents ([4]; 10 µM): 76.3 ± 3.6%
